Data taken from patent US4228288A, “Certain substituted 3,4,5,6-tetrahydropyridinium salt intermediates” (Eli Lilly and Company, priority 1979, dated 1980).
Like-named read-outs stand apart in the source and are kept apart here.

Tests used:
[1] = standard mouse writhing assay (inhibition of induced writhing); format: in vivo
From the text: (§1) The analgesic activity of a number of compounds provided by this invention has been determined in the standard rat-tail jerk assay and the mouse writhing assay. The results in the mouse writhing assay are presented as the effective dose in mg./kg. of the tested compound required to inhibit induced writhing in the test animals by fifty percent (ED50). Results are presented in Column II for both subcutaneous (S.C.) and oral (p.o.) administration of the test compound recited in Column I.

[2] = standard rat-tail jerk assay (delay of response to heat stimulus); format: in vivo; settings: subcutaneous, heat sensation
From the text: as §1
Column III presents the effects of the claimed compounds on rats subjected to a heat sensation. The compounds recited in column I were administered subcutaneously to the test animals. The test results are reported as the minimum effective dose (MED) of compound in mg./kg. needed to delay response to the pain stimulus by one second compared to control animals.

[3] = oral, read-out: Mouse Writhing ED50 p.o. (dose required to inhibit induced writhing by fifty percent)
[4] = sc, subcutaneous, read-out: Mouse Writhing ED50 s.c. (dose required to inhibit induced writhing by fifty percent)

| Structure (SMILES) | ED50 [1, 3] | ED50 [1, 4] | Rat Tail Jerk MED 1 sec. (minimum effective dose to delay response to the pain stimulus by one second compared to control animals) [2] |
| --- | --- | --- | --- |
| CC1CC(C)(c2cccc(O)c2)C(C)CN1C (stereo not drawn) [1,2,4,5-Tetramethyl-4-(3-hydroxyphenyl)piperidine] | 9.2 mg/kg | 1.25 mg/kg | 1 mg/kg |
| COc1cccc(C2(C)CC(C)N(C)CC2C)c1 (stereo not drawn) [1,2,4,5-Tetramethyl-4-(3-methoxyphenyl)piperidine] | 16 mg/kg | 19 mg/kg | 10 mg/kg |
| CCCC1(c2cccc(OC)c2)CC(C)N(C)CC1C (stereo not drawn) [1,2,5-Trimethyl-4-n-propyl-4-(3-methoxyphenyl)-piperidine] | 11.5 mg/kg | 4 mg/kg | 2 mg/kg |
| CCCC1(c2cccc(O)c2)CC(C)N(C)CC1C (stereo not drawn) [1,2,5-trimethyl-4-n-propyl-4-(3-hydroxyphenyl)piperidine] | 16 mg/kg | 29 mg/kg | 20 mg/kg |
| CCOC(=O)C1(c2ccccc2)CCN(C)CC1 [Meperidine, meperidine, reference compound] | 21 mg/kg | 2.8 mg/kg | 3.0 mg/kg |
